The assay is described as follows: Cytotoxicity against mouse L929 cells assessed as reduction in cell viability.
In general, IC50 refers to the concentration that gives 50% inhibition. For `O=c1cc(-c2ccc(OCCCc3cn(CCOCCOCCOc4ccc(-c5oc6ccccc6c(=O)c5OCc5ccccc5)cc4)nn3)cc2)oc2cc(F)ccc12`, the 50% inhibitory concentration (IC50) is greater than 100 µM. As for `O=c1cc(-c2ccccc2)oc2cc(OCCCCc3cn(CCOCCOc4ccc5c(=O)cc(-c6ccccc6)oc5c4)nn3)ccc12`, the figure is greater than 100 µM. As for `O=c1cc(-c2ccccc2)oc2cc(OCCn3cc(CN(Cc4ccccc4)Cc4cn(CCOc5ccc6c(=O)cc(-c7ccccc7)oc6c5)nn4)nn3)ccc12`, the figure is greater than 100 µM. `Cc1ccc2oc(-c3ccc(OCCCCc4cn(CCN(CCOc5ccc6c(=O)cc(-c7ccccc7)oc6c5)Cc5ccccc5)nn4)cc3)cc(=O)c2c1`: the concentration for half-maximal inhibition (IC50) was greater than 100 µM. With `COC(=O)c1cccc(COc2c(-c3ccc(OCCOCCn4cc(CN5CCCN(Cc6cn(CCOCCOc7ccc(-c8oc9ccccc9c(=O)c8OCc8cccc(C(=O)OC)c8)cc7)nn6)CC5)nn4)cc3)oc3ccccc3c2=O)c1`, the IC50 is greater than 100 µM. In the case of `COC(=O)c1cccc(COc2c(-c3ccc(OCCOCCn4cc(CCCOc5ccc(-c6cc(=O)c7ccc(F)cc7o6)cc5)nn4)cc3)oc3ccccc3c2=O)c1` it was greater than 100 µM; in that of `COC(=O)c1cccc(COc2c(-c3ccc(OCCOCCn4cc(CN(Cc5ccncc5)Cc5cn(CCOCCOc6ccc(-c7oc8ccccc8c(=O)c7OCc7cccc(C(=O)OC)c7)cc6)nn5)nn4)cc3)oc3ccccc3c2=O)c1`, greater than 50 µM; in that of `COC(=O)c1cccc(COc2c(-c3ccc(OCCOCCn4cc(CCCOc5ccc6c(=O)cc(-c7ccccc7)oc6c5)nn4)cc3)oc3ccccc3c2=O)c1`, greater than 100 µM. In the case of `O=c1cc(-c2ccccc2)oc2cc(OCCCCc3cn(CCOCCOc4ccc(-c5cc(=O)c6cc(F)ccc6o5)cc4)nn3)ccc12` it was greater than 100 µM; in that of `O=c1cc(-c2ccc(OCCOCCOCCn3cc(CCCOc4ccc5c(=O)cc(-c6ccccc6)oc5c4)nn3)cc2)oc2ccccc12`, 12 µM. In the case of `O=c1cc(-c2ccccc2)oc2cc(OCCCCc3cn(CCOCCOCCOc4ccc(-c5oc6ccccc6c(=O)c5OCc5ccccc5)cc4)nn3)ccc12` it was greater than 100 µM. On to `Cc1ccc2oc(-c3ccc(OCCCCc4cn(CCN(CCOc5ccc(-c6cc(=O)c7ccccc7o6)cc5)Cc5ccccc5)nn4)cc3)cc(=O)c2c1`, for which the IC50 is greater than 100 µM. As for `Cc1ccc2oc(-c3ccc(OCCOCCOCCn4cc(CN(CCOc5ccc6c(=O)cc(-c7ccccc7)oc6c5)Cc5ccccc5)nn4)cc3)cc(=O)c2c1`, the figure is greater than 100 µM; as for `COC(=O)c1cccc(COc2c(-c3ccc(OCCOCCOCCn4cc(CCCCOc5ccc(-c6cc(=O)c7cc(C)ccc7o6)cc5)nn4)cc3)oc3ccccc3c2=O)c1`, greater than 100 µM; as for `COC(=O)c1cccc(COc2c(-c3ccc(OCCOCCn4cc(CN(C)CCN(C)Cc5cn(CCOCCOc6ccc(-c7oc8ccccc8c(=O)c7OCc7cccc(C(=O)OC)c7)cc6)nn5)nn4)cc3)oc3ccccc3c2=O)c1`, greater than 100 µM.

Take `O=c1cc(-c2ccc(OCCOCCOCCn3cc(COCCOc4ccc5c(=O)cc(-c6ccccc6)oc5c4)nn3)cc2)oc2ccccc12`: the IC50 was 22 µM. With `O=c1cc(-c2ccccc2)oc2cc(OCCN(Cc3ccccc3)Cc3cn(CCOc4ccc5c(=O)cc(-c6ccccc6)oc5c4)nn3)ccc12`, the IC50 was greater than 100 µM. Consider `Cc1ccc2oc(-c3ccc(OCCCCc4cn(CCOCCOc5ccc(-c6oc7ccccc7c(=O)c6OCc6ccccc6)cc5)nn4)cc3)cc(=O)c2c1`, for which the 50% inhibitory concentration (IC50) is greater than 100 µM. For `O=c1cc(-c2ccccc2)oc2cc(OCCOCc3cn(CCOCCOc4ccc(-c5cc(=O)c6cc(F)ccc6o5)cc4)nn3)ccc12`, the half-inhibitory concentration (IC50) was greater than 100 µM. As for `O=c1cc(-c2ccccc2)oc2cc(OCCCc3cn(CCOCCOCCOc4ccc5c(=O)cc(-c6ccccc6)oc5c4)nn3)ccc12`, the figure is greater than 50 µM. As for `Cc1ccc2oc(-c3ccc(OCCOCCOCCn4cc(COCCOc5ccc6c(=O)cc(-c7ccccc7)oc6c5)nn4)cc3)cc(=O)c2c1`, the figure is greater than 100 µM.

For the compound `O=c1cc(-c2ccccc2)oc2cc(OCCOCc3cn(CCOCCOc4ccc(-c5oc6ccccc6c(=O)c5OCc5ccccc5)cc4)nn3)ccc12`, the half-maximal inhibitory concentration (IC50) is greater than 100 µM. Consider `COC(=O)c1cccc(COc2c(-c3ccc(OCCOCCn4cc(CN5CCN(Cc6cn(CCOCCOc7ccc(-c8oc9ccccc9c(=O)c8OCc8cccc(C(=O)OC)c8)cc7)nn6)CC5)nn4)cc3)oc3ccccc3c2=O)c1`, for which the IC50 is greater than 100 µM. In the case of `COC(=O)c1cccc(COc2c(-c3ccc(OCCOCCn4cc(CCCCOc5ccc6c(=O)cc(-c7ccccc7)oc6c5)nn4)cc3)oc3ccccc3c2=O)c1` it was greater than 100 µM; in that of `Cc1ccc2oc(-c3ccc(OCCCCc4cn(CCOc5ccc6c(=O)cc(-c7ccccc7)oc6c5)nn4)cc3)cc(=O)c2c1`, 9.2 µM.

On to `O=c1cc(-c2ccc(OCCOCCOCCn3cc(CCCCOc4ccc5c(=O)cc(-c6ccccc6)oc5c4)nn3)cc2)oc2ccccc12`, for which the IC50 was greater than 50 µM.

On to `O=c1cc(-c2ccccc2)oc2cc(OCCCCc3cn(CCOCCOc4ccc(-c5oc6ccccc6c(=O)c5OCc5ccccc5)cc4)nn3)ccc12`, for which the IC50 is greater than 100 µM. With `Cc1ccc2oc(-c3ccc(OCCCCc4cn(CCOCCOCCOc5ccc(-c6cc(=O)c7ccccc7o6)cc5)nn4)cc3)cc(=O)c2c1`, the IC50 is greater than 50 µM.

For the compound `O=c1c(OCc2ccccc2)c(-c2ccc(OCCOCCOCCn3cc(CN(Cc4ccccc4)Cc4cn(CCOCCOCCOc5ccc(-c6oc7ccccc7c(=O)c6OCc6ccccc6)cc5)nn4)nn3)cc2)oc2ccccc12`, the concentration for half-maximal inhibition (IC50) was greater than 100 µM.

Regarding `Cc1ccc2oc(-c3ccc(OCCOCCOCCn4cc(CCCOc5ccc6c(=O)cc(-c7ccccc7)oc6c5)nn4)cc3)cc(=O)c2c1`, the 50% inhibitory concentration (IC50) was greater than 50 µM.

For `Cc1ccc2oc(-c3ccc(OCCOCCOCCn4cc(CN(Cc5ccccc5)Cc5cn(CCOCCOCCOc6ccc(-c7cc(=O)c8cc(C)ccc8o7)cc6)nn5)nn4)cc3)cc(=O)c2c1`, the 50% inhibitory concentration (IC50) is greater than 100 µM.

As for `COC(=O)c1cccc(COc2c(-c3ccc(OCCOCCn4cc(-c5ccc(-c6cn(CCOCCOc7ccc(-c8oc9ccccc9c(=O)c8OCc8cccc(C(=O)OC)c8)cc7)nn6)cc5)nn4)cc3)oc3ccccc3c2=O)c1`, the IC50 was greater than 100 µM.

On to `OCCOCCn1cc(CN(Cc2ccccc2)Cc2cn(CCOCCO)nn2)nn1`, for which the half-inhibitory concentration (IC50) is greater than 100 µM. In the case of `COC(=O)c1cccc(COc2c(-c3ccc(OCCOCCn4cc(CCCCOc5ccc(-c6cc(=O)c7cc(C)ccc7o6)cc5)nn4)cc3)oc3ccccc3c2=O)c1` it was greater than 100 µM. Take `COC(=O)c1cccc(COc2c(-c3ccc(OCCOCCOCCn4cc(CCCOc5ccc6c(=O)cc(-c7ccccc7)oc6c5)nn4)cc3)oc3ccccc3c2=O)c1`: the IC50 was greater than 100 µM. As for `O=c1cc(-c2ccc(OCCCc3cn(CCOCCOCCOc4ccc5c(=O)cc(-c6ccccc6)oc5c4)nn3)cc2)oc2cc(F)ccc12`, the figure is greater than 100 µM; as for `O=c1cc(-c2ccccc2)oc2cc(OCCOCc3cn(CCOCCOCCOc4ccc(-c5cc(=O)c6cc(F)ccc6o5)cc4)nn3)ccc12`, greater than 50 µM. On to `O=c1cc(-c2ccccc2)oc2cc(OCCCCc3cn(CCOCCOCCOc4ccc5c(=O)cc(-c6ccccc6)oc5c4)nn3)ccc12`, for which the IC50 was greater than 100 µM. In the case of `COC(=O)c1cccc(COc2c(-c3ccc(OCCOCCOCCn4cc(CCCOc5ccc(-c6cc(=O)c7ccc(F)cc7o6)cc5)nn4)cc3)oc3ccccc3c2=O)c1` it was greater than 100 µM.

On to `O=c1cc(-c2ccc(OCCOCCn3cc(CN(Cc4ccccc4)Cc4cn(CCOCCOc5ccc(-c6cc(=O)c7ccccc7o6)cc5)nn4)nn3)cc2)oc2ccccc12`, for which the IC50 was greater than 100 µM. Consider `COC(=O)c1cccc(COc2c(-c3ccc(OCCOCCOCCn4cc(COCCOc5ccc6c(=O)cc(-c7ccccc7)oc6c5)nn4)cc3)oc3ccccc3c2=O)c1`, for which the IC50 is greater than 100 µM. With `O=c1cc(-c2ccccc2)oc2cc(OCCN(Cc3ccccc3)Cc3cn(CCOCCOCCOc4ccc(-c5oc6ccccc6c(=O)c5OCc5ccccc5)cc4)nn3)ccc12`, the IC50 is greater than 100 µM. As for `O=c1cc(-c2ccccc2)oc2cc(OCCOCCOCCn3cc(COCCOc4ccc5c(=O)cc(-c6ccccc6)oc5c4)nn3)ccc12`, the figure is 12.1 µM; as for `COC(=O)c1cccc(COc2c(-c3ccc(OCCOCCOCCn4cc(CCCCOc5ccc6c(=O)cc(-c7ccccc7)oc6c5)nn4)cc3)oc3ccccc3c2=O)c1`, greater than 100 µM. As for `O=c1cc(-c2ccccc2)oc2cc(OCCCc3cn(CCOCCOCCOc4ccc(-c5oc6ccccc6c(=O)c5OCc5ccccc5)cc4)nn3)ccc12`, the figure is greater than 100 µM.

For the compound `Cc1ccc2oc(-c3ccc(OCCCCc4cn(CCOCCOCCOc5ccc6c(=O)cc(-c7ccccc7)oc6c5)nn4)cc3)cc(=O)c2c1`, the half-inhibitory concentration (IC50) is greater than 100 µM.

`Cc1ccc2oc(-c3ccc(OCCCCc4cn(CCOCCOCCOc5ccc(-c6oc7ccccc7c(=O)c6OCc6ccccc6)cc5)nn4)cc3)cc(=O)c2c1`: the IC50 is greater than 100 µM. In the case of `COC(=O)c1cccc(COc2c(-c3ccc(OCCOCCn4cc(COCCOc5ccc6c(=O)cc(-c7ccccc7)oc6c5)nn4)cc3)oc3ccccc3c2=O)c1` it was greater than 100 µM; in that of `O=c1cc(-c2ccccc2)oc2cc(OCCCCc3cn(CCOCCOCCOc4ccc(-c5cc(=O)c6cc(F)ccc6o5)cc4)nn3)ccc12`, greater than 100 µM. Take `O=c1cc(-c2ccccc2)oc2cc(OCCOCCn3cc(COCCOc4ccc5c(=O)cc(-c6ccccc6)oc5c4)nn3)ccc12`: the half-maximal inhibitory concentration (IC50) was greater than 100 µM. As to `COC(=O)c1cccc(COc2c(-c3ccc(OCCOCCOCCn4cc(CN5CCN(Cc6cn(CCOCCOCCOc7ccc(-c8oc9ccccc9c(=O)c8OCc8cccc(C(=O)OC)c8)cc7)nn6)CC5)nn4)cc3)oc3ccccc3c2=O)c1`, the concentration for half-maximal inhibition (IC50) is greater than 100 µM. As to `Cc1ccc2oc(-c3ccc(OCCOCCOCCn4cc(CCCCOc5ccc6c(=O)cc(-c7ccccc7)oc6c5)nn4)cc3)cc(=O)c2c1`, the IC50 was greater than 50 µM. In the case of `O=c1cc(-c2ccccc2)oc2cc(OCCOCCn3cc(CN(Cc4ccccc4)Cc4cn(CCOCCOc5ccc6c(=O)cc(-c7ccccc7)oc6c5)nn4)nn3)ccc12` it was greater than 100 µM. In the case of `O=c1cc(-c2ccccc2)oc2cc(OCCOCCOCCn3cc(CN(CCOc4ccc5c(=O)cc(-c6ccccc6)oc5c4)Cc4ccccc4)nn3)ccc12`, the 50% inhibitory concentration (IC50) is greater than 100 µM. In the case of `O=c1cc(-c2ccccc2)oc2cc(OCCOCCOCCn3cc(CN(Cc4ccccc4)Cc4cn(CCOCCOCCOc5ccc6c(=O)cc(-c7ccccc7)oc6c5)nn4)nn3)ccc12` it was greater than 100 µM; in that of `Cc1ccc2oc(-c3ccc(OCCOCCOCCOCCOCCOc4ccc(-c5cc(=O)c6cc(C)ccc6o5)cc4)cc3)cc(=O)c2c1`, greater than 100 µM.
